# Measurements from patent US9661853B2, “Molecules having pesticidal utility, and intermediates, compositions, and processes, related thereto” (Dow AgroSciences LLC, priority 2015, dated 2017).
# Experiments:
# [1] = system: Beet Armyworm (Spodoptera exigua, LAPHEG); test: Bioassay on Beet Armyworm (BAW), 128-well diet tray assay; type: in vivo; details: 168 h, 50 μg/cm^2 on artificial diet, second instar larvae, 25° C., five to seven days, average of eight wells, read-out: BAW % Control (or Mortality) rating
# Experimental: (§1) Bioassays on Beet Armyworm (Spodoptera exigua, LAPHEG) (“BAW”) and Cabbage Looper (Trichoplusia ni, TRIPNI) (“CL”)
# (§2) Certain molecules disclosed in this document were tested against BAW and CL using procedures described in the following examples. In the reporting of the results, the “BAW & CL Rating Table” was used (See Table Section).
# Bioassays on BAW were conducted using a 128-well diet tray assay. One to five second instar BAW larvae were placed in each well (3 mL) of the diet tray that had been previously filled with 1 mL of artificial diet to which 50 μg/cm^2 of the test molecule (dissolved in 50 μL of 90:10 acetone-water mixture) had been applied (to each of eight wells) and then allowed to dry. Trays were covered with a clear self-adhesive cover, vented to allow gas exchange, and held at 25° C., 14:10 light-dark for five to seven days. Percent mortality was recorded for the larvae in each well; activity in the eight wells was then averaged. The results are indicated in the table entitled “Table ABC: Biological Results” (See Table Section).
# [2] = system: Cabbage Looper (Trichoplusia ni, TRIPNI); test: Bioassay on Cabbage Looper (CL), 128-well diet tray assay; type: in vivo; details: 168 h, 50 μg/cm^2 on artificial diet, second instar larvae, 25° C., five to seven days, average of eight wells, read-out: CL % Control (or Mortality) rating
# Experimental: as §1, §2
# Bioassays on CL were conducted using a 128-well diet tray assay. One to five second instar CL larvae were placed in each well (3 mL) of the diet tray that had been previously filled with 1 mL of artificial diet to which 50 μg/cm^2 of the test molecule (dissolved in 50 μL of 90:10 acetone-water mixture) had been applied (to each of eight wells) and then allowed to dry. Trays were covered with a clear self-adhesive cover, vented to allow gas exchange, and held at 25° C., 14:10 light-dark for five to seven days. Percent mortality was recorded for the larvae in each well; activity in the eight wells was then averaged. The results are indicated in the table entitled “Table ABC: Biological Results” (See Table Section).
Structure (SMILES),mortality at 50 µg/cm2 [1] [%],mortality at 50 µg/cm2 [2] [%]
"COC(C)c1ccc(C)cc1N1C(=O)CS/C1=N\C(=O)Nc1ccc(CNc2ncn(-c3ccc(OC(F)(F)F)cc3)n2)cc1 (stereo not shown) [F1, (Z)-1-(3-(2-(1-Methoxyethyl)-5-methylphenyl)-4-oxothiazolidin-2-ylidene)-3-(4-(((1-(4-(trifluoromethoxy)phenyl)-1H-1,2,4-triazol-3-yl)amino)methyl)phenyl)urea]",50 to 100,50 to 100
"COCc1ccc(C)cc1N1C(=O)CS/C1=N\C(=O)Nc1ccc(CNc2ncn(-c3ccc(OC(F)(F)F)cc3)n2)cc1 [F4, (Z)-1-(3-(2-(Methoxymethyl)-5-methylphenyl)-4-oxothiazolidin-2-ylidene)-3-(4-(((1-(4-(trifluoromethoxy)phenyl)-1H-1,2,4-triazol-3-yl)amino)methyl)phenyl)urea]",50 to 100,50 to 100
"Cc1ccc(C(C)C)c(N2C(=O)CS/C2=N\C(=O)Nc2ccc(CNc3ncn(-c4ccc(OC(F)(F)F)cc4)n3)c(Cl)c2)c1 [F7, (Z)-1-(3-Chloro-4-(((1-(4-(trifluoromethoxy)phenyl)-1H-1,2,4-triazol-3-yl)amino)methyl)phenyl)-3-(3-(2-isopropyl-5-methylphenyl)-4-oxothiazolidin-2-ylidene)urea]",50 to 100,50 to 100
"CCCc1ccc(C)cc1N1C(=O)CS/C1=N\C(=O)Nc1ccc(CNc2ncn(-c3ccc(OC(F)(F)F)cc3)n2)c(Cl)c1 [F8, (Z)-1-(3-Chloro-4-(((1-(4-(trifluoromethoxy)phenyl)-1H-1,2,4-triazol-3-yl)amino)methyl)phenyl)-3-(3-(5-methyl-2-propylphenyl)-4-oxothiazolidin-2-ylidene)urea]",50 to 100,50 to 100
"COCc1ccc(C)cc1N1C(=O)CS/C1=N\C(=O)Nc1ccc(CNc2ncn(-c3ccc(OC(F)(F)F)cc3)n2)c(Cl)c1 [F9, (Z)-1-(3-Chloro-4-(((1-(4-(trifluoromethoxy)phenyl)-1H-1,2,4-triazol-3-yl)amino)methyl)phenyl)-3-(3-(2-(methoxymethyl)-5-methylphenyl)-4-oxothiazolidin-2-ylidene)urea]",50 to 100,50 to 100
"Cc1ccc(C(C)C)c(N2C(=O)CS/C2=N\C(=O)Nc2ccc(CNc3ncn(-c4ccc(OC(F)(F)F)cc4)n3)cn2)c1 [F11, (Z)-1-(3-(2-Isopropyl-5-methylphenyl)-4-oxothiazolidin-2-ylidene)-3-(5-(((1-(4-(trifluoromethoxy)phenyl)-1H-1,2,4-triazol-3-yl)amino)methyl)pyridin-2-yl)urea]",50 to 100,50 to 100
"CCCc1ccc(C)cc1N1C(=O)CS/C1=N\C(=O)Nc1ccc(CNc2ncn(-c3ccc(OC(F)(F)F)cc3)n2)cn1 [F12, (Z)-1-(3-(5-Methyl-2-propylphenyl)-4-oxothiazolidin-2-ylidene)-3-(5-(((1-(4-(trifluoromethoxy)phenyl)-1H-1,2,4-triazol-3-yl)amino)methyl)pyridin-2-yl)urea]",50 to 100,50 to 100
"COCc1ccc(C)cc1N1C(=O)CS/C1=N\C(=O)Nc1ccc(CNc2ncn(-c3ccc(OC(F)(F)F)cc3)n2)cn1 [F13, (Z)-1-(3-(2-(Methoxymethyl)-5-methylphenyl)-4-oxothiazolidin-2-ylidene)-3-(5-(((1-(4-(trifluoromethoxy)phenyl)-1H-1,2,4-triazol-3-yl)amino)methyl)pyridin-2-yl)urea]",50 to 100,50 to 100
"COCc1ccc(C)cc1N1C(=O)CS/C1=N\C(=O)Nc1ccc(CN(C)c2ncn(-c3ccc(OC(F)(F)F)cc3)n2)cn1 [F14, (Z)-1-(3-(2-(Methoxymethyl)-5-methylphenyl)-4-oxothiazolidin-2-ylidene)-3-(5-((methyl(1-(4-(trifluoromethoxy)phenyl)-1H-1,2,4-triazol-3-yl)amino)methyl)pyridin-2-yl)urea]",50 to 100,50 to 100
"Cc1ccc(C(C)C)c(N2C(=O)CS/C2=N\C(=O)Nc2ccc(CN(C)c3ncn(-c4ccc(OC(F)(F)F)cc4)n3)cn2)c1 [F16, (Z)-1-(3-(2-Isopropyl-5-methylphenyl)-4-oxothiazolidin-2-ylidene)-3-(5-((methyl(1-(4-(trifluoromethoxy)phenyl)-1H-1,2,4-triazol-3-yl)amino)methyl)pyridin-2-yl)urea]",50 to 100,50 to 100
"COCc1ccc(C)cc1N1C(=O)CS/C1=N\C(=O)Nc1ccc(CN(C)c2ncn(-c3ccc(OC(F)(F)F)cc3)n2)cc1F [F17, (Z)-1-(2-Fluoro-4-((methyl(1-(4-(trifluoromethoxy)phenyl)-1H-1,2,4-triazol-3-yl)amino)methyl)phenyl)-3-(3-(2-(methoxymethyl)-5-methylphenyl)-4-oxothiazolidin-2-ylidene)urea]",50 to 100,50 to 100
"COCc1ccc(C)cc1N1C(=O)CS/C1=N\C(=O)Nc1ccc(CN(C)c2ncn(-c3ccc(OC(F)(F)F)cc3)n2)c(Cl)c1 [F18, (Z)-1-(3-Chloro-4-((methyl(1-(4-(trifluoromethoxy)phenyl)-1H-1,2,4-triazol-3-yl)amino)methyl)phenyl)-3-(3-(2-(methoxymethyl)-5-methylphenyl)-4-oxothiazolidin-2-ylidene)urea]",0 to 50,0 to 50
"CCCc1ccc(C)cc1N1C(=O)CS/C1=N\C(=O)Nc1ccc(CN(C)c2ncn(-c3ccc(OC(F)(F)F)cc3)n2)c(Cl)c1 [F19, (Z)-1-(3-Chloro-4-((methyl(1-(4-(trifluoromethoxy)phenyl)-1H-1,2,4-triazol-3-yl)amino)methyl)phenyl)-3-(3-(5-methyl-2-propylphenyl)-4-oxothiazolidin-2-ylidene)urea]",0,0
"Cc1ccc(C(C)C)c(N2C(=O)CS/C2=N\C(=O)Nc2ccc(CN(C)c3ncn(-c4ccc(OC(F)(F)F)cc4)n3)c(Cl)c2)c1 [F20, (Z)-1-(3-Chloro-4-((methyl(1-(4-(trifluoromethoxy)phenyl)-1H-1,2,4-triazol-3-yl)amino)methyl)phenyl)-3-(3-(2-isopropyl-5-methylphenyl)-4-oxothiazolidin-2-ylidene)urea]",0 to 50,50 to 100
"Cc1ccc(C(C)C)c(N2C(=O)CS/C2=N\C(=O)Nc2ccc(CN(C)c3ncn(-c4ccc(OC(F)(F)F)cc4)n3)cc2F)c1 [F22, (Z)-1-(2-Fluoro-4-((methyl(1-(4-(trifluoromethoxy)phenyl)-1H-1,2,4-triazol-3-yl)amino)methyl)phenyl)-3-(3-(2-isopropyl-5-methylphenyl)-4-oxothiazolidin-2-ylidene)urea]",50 to 100,50 to 100
"CCCc1ccc(C)cc1N1C(=O)CS/C1=N\C(=O)Nc1ccc(CN(C)c2ncn(-c3ccc(OC(F)(F)F)cc3)n2)cc1 [F23, (Z)-1-(4-((Methyl(1-(4-(trifluoromethoxy)phenyl)-1H-1,2,4-triazol-3-yl)amino)methyl)phenyl)-3-(3-(5-methyl-2-propylphenyl)-4-oxothiazolidin-2-ylidene)urea]",50 to 100,50 to 100
"Cc1ccc(C(C)C)c(N2C(=O)CS/C2=N\C(=O)Nc2ccc(CN(C)c3ncn(-c4ccc(OC(F)(F)F)cc4)n3)cc2)c1 [F24, (Z)-1-(3-(2-Isopropyl-5-methylphenyl)-4-oxothiazolidin-2-ylidene)-3-(4-((methyl(1-(4-(trifluoromethoxy)phenyl)-1H-1,2,4-triazol-3-yl)amino)methyl)phenyl)urea]",50 to 100,50 to 100
"Cc1ccc(C(C)C)c(N2C(=O)CS/C2=N\C(=O)Nc2ccc(C(=O)N(C)c3ncn(-c4ccc(OC(F)(F)F)cc4)n3)cc2)c1 [F25, (Z)-4-(3-(3-(2-isopropyl-5-methylphenyl)-4-oxothiazolidin-2-ylidene)ureido)-N-methyl-N-(1-(4-(trifluoromethoxy)phenyl)-1H-1,2,4-triazol-3-yl)benzamide]",50 to 100,50 to 100
"Cc1ccc(C(C)C)c(N2C(=O)CS/C2=N\C(=O)Nc2ccc(NC(=O)c3ncn(-c4ccc(OC(F)(F)F)cc4)n3)cc2)c1 [F26, (Z)—N-(4-(3-(3-(2-Isopropyl-5-methylphenyl)-4-oxothiazolidin-2-ylidene)ureido)phenyl)-1-(4-(trifluoromethoxy)phenyl)-1H-1,2,4-triazole-3-carboxamide]",50 to 100,50 to 100
"Cc1ccc(C(C)C)c(N2C(=O)CS/C2=N\C(=O)Nc2ccc(N(C)C(=O)c3ncn(-c4ccc(OC(F)(F)F)cc4)n3)cc2)c1 [F27, (Z)—N-(4-(3-(3-(2-Isopropyl-5-methylphenyl)-4-oxothiazolidin-2-ylidene)ureido)phenyl)-N-methyl-1-(4-(trifluoromethoxy)phenyl)-1H-1,2,4-triazole-3-carboxamide]",50 to 100,50 to 100
